Assay results taken from the supplement of paper PMC11061612.

How the values were obtained:
Test in all cases: Bliss excess, mean over the matrix (fraction); higher = more synergy
[1] = system: SW48 (Colorectal Carcinoma)
Summary of the method: (§1)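 Cell lines grown in DMEM/F12 or RPMI with 10% FBS were plated in 1536-well plates and held 24 hours at 37°C, 5% CO2 before 72 hours of exposure to two-drug dose matrices, with DMSO typically at 0.2%. CellTiter-Glo 2.0 luminescence gave viability, which was converted to inhibition. Vehicle wells were set to 0 and blank wells to 1. Combination Emax is the second-highest inhibition in the matrix, and Bliss excess is the observed combination effect minus the expected EA + EB − EA·EB, where EA and EB are the single-agent effects.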

[2] = system: HLE (Hepatocellular Carcinoma)
Summary of the method: as §1

[3] = system: SKN-3 (Head and Neck Carcinoma)
Summary of the method: as §1

[4] = system: MSTO-211H (Mesothelioma)
Summary of the method: as §1

[5] = system: HCC1143 (Breast Carcinoma)
Summary of the method: as §1

[6] = system: HuO9 (Osteosarcoma)
Summary of the method: as §1

[7] = system: DOK (Oral Cavity Carcinoma)
Summary of the method: as §1

[8] = system: CAL-39 (Other Solid Carcinomas)
Summary of the method: as §1

[9] = system: WSU-DLCL2 (B-Cell Non-Hodgkin's Lymphoma)
Summary of the method: as §1

[10] = system: D-283MED (Other Solid Carcinomas)
Summary of the method: as §1

[11] = system: MCF7 (Breast Carcinoma)
Summary of the method: as §1

[12] = system: HOP-92 (Non-Small Cell Lung Carcinoma)
Summary of the method: as §1

[13] = system: HCC38 (Breast Carcinoma)
Summary of the method: as §1

[14] = system: HCT-116 (Colorectal Carcinoma)
Summary of the method: as §1

[15] = system: H4 (Low Grade Glioma)
Summary of the method: as §1

[16] = system: U-118-MG (Low Grade Glioma)
Summary of the method: as §1

[17] = system: MES-SA (Other Solid Carcinomas)
Summary of the method: as §1

[18] = system: SNU-61 (Colorectal Carcinoma)
Summary of the method: as §1

[19] = system: 647-V (Bladder Carcinoma)
Summary of the method: as §1

[20] = system: A172 (Glioblastoma)
Summary of the method: as §1

| Compound | Bliss excess [1] | Bliss excess [2] | Bliss excess [3] | Bliss excess [4] | Bliss excess [5] | Bliss excess [6] | Bliss excess [7] | Bliss excess [8] | Bliss excess [9] | Bliss excess [10] | Bliss excess [11] | Bliss excess [12] | Bliss excess [13] | Bliss excess [14] | Bliss excess [15] | Bliss excess [16] | Bliss excess [17] | Bliss excess [18] | Bliss excess [19] | Bliss excess [20] |
| --- | --- | --- | --- | --- | --- | --- | --- | --- | --- | --- | --- | --- | --- | --- | --- | --- | --- | --- | --- | --- |
| CS(=O)(=O)CCNCc1ccc(-c2ccc3ncnc(Nc4ccc(OCc5cccc(F)c5)c(Cl)c4)c3c2)o1 [Lapatinib] + NC1(c2ccc(-c3nc4ccn5c(=O)[nH]nc5c4cc3-c3ccccc3)cc2)CCC1 [MK-2206] (first compound max 10 µM, 7x7, partner max 10 µM) | 0.0412 | -0.0136 | -0.0508 | -0.0466 | -0.0213 | 0.0257 | 0.0212 | -0.0006 | 0.0058 | 0.0164 | -0.0702 | 0.0328 | 0.037 | -0.0347 | 0.0054 |  |  |  |  |  |
| CC1(C)CCC(CN2CCN(c3ccc(C(=O)NS(=O)(=O)c4ccc(NCC5CCOCC5)c([N+](=O)[O-])c4)c(Oc4cnc5[nH]ccc5c4)c3)CC2)=C(c2ccc(Cl)cc2)C1 [Venetoclax] + C1CN(CCC1(C(=O)N[C@@H](CCO)C2=CC=C(C=C2)Cl)N)C3=NC=NC4=C3C=CN4 [Capivasertib] (first compound max 1 µM, 7x7, partner max 3 µM) | -0.0679 | -0.0132 | -0.033 | -0.0496 | -0.0004 | -0.0237 | -0.0532 | -0.0183 | 0.0415 | -0.0218 | 0.0076 | -0.0245 | -0.0177 | -0.0801 | -0.0366 | -0.0494 | -0.0597 | -0.0321 | -0.0247 | -0.0461 |
| COc1nnc2ccc(N3CCC(c4ccc(OCCN5CCN(C)C(=O)[C@H]5C)cc4)CC3)nn12 [AZD5153] + C=CCn1c(=O)c2cnc(Nc3ccc(N4CCN(C)CC4)cc3)nc2n1-c1cccc(C(C)(C)O)n1 [AZD1775] (first compound max 1 µM, partner max 1 µM) | -0.0699 | 0.0069 | -0.0342 | -0.121 | -0.0047 | -0.035 | -0.0239 | -0.0493 | -0.0085 | -0.034 | -0.0356 | -0.0301 | -0.107 | -0.0367 | -0.0056 | -0.0235 | -0.0334 | -0.0041 | -0.0448 | -0.0521 |
| CC(=O)c1c(C)c2cnc(Nc3ccc(N4CCNCC4)cn3)nc2n(C2CCCC2)c1=O [Palbociclib] + Cn1cnc2c(F)c(Nc3ccc(Br)cc3Cl)c(C(=O)NOCCO)cc21 [Selumetinib] (first compound max 10 µM, 7x7, partner max 10 µM) | 0.0668 | -0.0418 | 0.0345 | -0.0714 | 0.0325 | -0.064 | 0.0057 | 0.151 | -0.0194 | 0.0045 | -0.0013 | 0.0142 | -0.0291 | 0.0697 | 0.0308 | -0.0114 | -0.0009 | 0.0179 | -0.035 | 0.0031 |
| CC(=O)c1c(C)c2cnc(Nc3ccc(N4CCNCC4)cn3)nc2n(C2CCCC2)c1=O [Palbociclib] + CC1(C)CCC(CN2CCN(c3ccc(C(=O)NS(=O)(=O)c4ccc(NCC5CCOCC5)c([N+](=O)[O-])c4)c(Oc4cnc5[nH]ccc5c4)c3)CC2)=C(c2ccc(Cl)cc2)C1 [Venetoclax] (first compound max 10 µM, 7x7, partner max 1 µM) | -0.0251 | -0.0399 | -0.07 | -0.0922 | -0.0237 | 0.0056 | -0.0542 | -0.0566 | 0.0277 | 0.0132 | -0.0334 | -0.0166 | -0.0437 | -0.0285 | 0.0013 | 0.0308 | 0.0594 | -0.0361 | -0.0439 | -0.003 |
| CN(C)CCCOc1ccc(-c2ccc3ncc4c(c3c2)n(C2CCOCC2)c(=O)n4C)cn1 [AZD0156] + C=CCn1c(=O)c2cnc(Nc3ccc(N4CCN(C)CC4)cc3)nc2n1-c1cccc(C(C)(C)O)n1 [AZD1775] (first compound max 1 µM, partner max 1 µM) | -0.0172 | -0.026 | -0.0276 | 0.0099 | -0.0802 | -0.0017 | -0.0143 | -0.0326 | -0.0119 | -0.0408 | -0.0338 | -0.0522 | -0.0963 | -0.0016 | -0.0516 | -0.0322 | 0.0372 | -0.0277 | 0.0001 | -0.0431 |
| Cc1c2c(nn1C)CSCc1cc(n(C)n1)CSc1cc(c3ccccc3c1)OCCCc1c(C(=O)O)n(C)c3c-2c(Cl)ccc13 [AZD5991] + C=CCn1c(=O)c2cnc(Nc3ccc(N4CCN(C)CC4)cc3)nc2n1-c1cccc(C(C)(C)O)n1 [AZD1775] (first compound max 1 µM, partner max 1 µM) | -0.0318 | 0.0017 | 0.0116 | 0.0284 | 0.0689 | -0.0292 | -0.0235 | 0.0957 | -0.0245 | -0.0583 | -0.0622 | -0.012 | 0.0396 | 0.0226 | -0.042 | -0.0014 | 0.0402 | -0.0118 | 0.059 | 0.0736 |
| CN(C)CCCOc1ccc(-c2ccc3ncc4c(c3c2)n(C2CCOCC2)c(=O)n4C)cn1 [AZD0156] + C[C@@H]1COCCN1C2=NC(=NC(=C2)C3(CC3)[S@](=N)(=O)C)C4=C5C=CNC5=NC=C4 [AZD6738] (first compound max 1 µM, 7x7, partner max 10 µM) | -0.0043 | 0.0261 | 0.0368 | 0.0418 | 0.0323 | 0.0236 | -0.0395 | 0.0017 | 0.0712 | 0.0357 | 0.0578 | -0.0145 | -0.0689 | -0.0047 | -0.0404 | 0.0189 | 0.0509 | -0.0047 | 0.0039 | 0.024 |
| C=CCn1c(=O)c2cnc(Nc3ccc(N4CCN(C)CC4)cc3)nc2n1-c1cccc(C(C)(C)O)n1 [AZD1775] + C1CN(CCC1(C(=O)N[C@@H](CCO)C2=CC=C(C=C2)Cl)N)C3=NC=NC4=C3C=CN4 [Capivasertib] (first compound max 3 µM, partner max 3 µM) |  | -0.0734 | -0.0344 | -0.0797 | -0.05 | -0.0495 | 0.0014 | -0.0152 | -0.0709 | -0.0189 | 0.0075 | 0.0152 | -0.105 | 0.0051 | -0.0472 | -0.0726 |  |  | 0.0493 | -0.0099 |
| C[C@@H]1COCCN1c1cc(C2([S@](C)(=N)=O)CC2)nc(-c2ccnc3[nH]ccc23)n1 [AZD6738] + O=C(c1cc(Cc2n[nH]c(=O)c3ccccc23)ccc1F)N1CCN(C(=O)C2CC2)CC1 [Olaparib] (first compound max 10 µM, 7x7, partner max 10 µM) | -0.0367 | -0.0562 | -0.0217 | -0.0082 | -0.0284 | -0.0166 | 0.0048 |  | -0.0119 | -0.0148 | 0.0135 | 0.0158 | 0.0122 | 0.0928 | 0.0238 | 0.0125 | -0.0519 | -0.0019 | 0.0753 | -0.0398 |
| CN(C)CCCOc1ccc(-c2ccc3ncc4c(c3c2)n(C2CCOCC2)c(=O)n4C)cn1 [AZD0156] + O=C(c1cc(Cc2n[nH]c(=O)c3ccccc23)ccc1F)N1CCN(C(=O)C2CC2)CC1 [Olaparib] (first compound max 3 µM, partner max 3 µM) |  | -0.0129 | -0.0165 | -0.0685 | -0.0194 | 0.0888 | 0.0549 | 0.0549 | 0.211 | 0.115 | 0.0509 | 0.0111 | 0.0454 | 0.129 | 0.179 | 0.0122 | 0.142 |  | 0.0562 | 0.0378 |
| Cc1nc(-c2cn3c(n2)-c2ccc(-c4cnn(C(C)(C)C(N)=O)c4)cc2OCC3)n(C(C)C)n1 [Taselisib] + O=C(Nc1ccc2[nH]nc(-c3ccncc3)c2c1)[C@@H]1CCN(CC(=O)N2CCN(c3ccc(-c4ncccn4)cc3)CC2)C1 [SCH772984] (first compound max 10 µM, 7x7, partner max 5 µM) | 0.203 | 0.0366 |  | 0.131 |  |  | -0.0218 | 0.0609 | 0.0062 | 0.061 |  |  | 0.0325 | 0.138 | -0.0007 |  |  |  |  |  |
| Cc1c2c(nn1C)CSCc1cc(n(C)n1)CSc1cc(c3ccccc3c1)OCCCc1c(C(=O)O)n(C)c3c-2c(Cl)ccc13 [AZD5991] + C[C@@H]1COCCN1C2=NC(=NC(=C2)C3(CC3)[S@](=N)(=O)C)C4=C5C=CNC5=NC=C4 [AZD6738] (first compound max 1 µM, 7x7, partner max 10 µM) | -0.0259 | 0.0075 | 0.0678 | 0.0032 | 0.0032 | 0.0259 |  | -0.0411 | 0.0004 | -0.0109 | 0.0286 | 0.0003 | 0.0528 | 0.0475 | 0.0274 | 0.0187 | 0.0653 | 0.0435 | 0.0802 | -0.0012 |
| CCc1c2c(nc3ccc(O)cc13)-c1cc3c(c(=O)n1C2)COC(=O)[C@]3(O)CC [SN-38] + O=C(c1cc(Cc2n[nH]c(=O)c3ccccc23)ccc1F)N1CCN(C(=O)C2CC2)CC1 [Olaparib] (first compound max 0.3 µM, 7x7, partner max 10 µM) | 0.028 | 0.0335 |  | 0.0376 |  | 0.0687 | 0.0284 | 0.081 | 0.0564 | 0.0174 | 0.0115 |  | 0.0331 | 0.104 | 0.0958 |  |  |  |  | 0.0639 |
| CS(=O)(=O)CCNCc1ccc(-c2ccc3ncnc(Nc4ccc(OCc5cccc(F)c5)c(Cl)c4)c3c2)o1 [Lapatinib] + Cn1cnc2c(F)c(Nc3ccc(Br)cc3Cl)c(C(=O)NOCCO)cc21 [Selumetinib] (first compound max 10 µM, 7x7, partner max 10 µM) | 0.146 | 0.0068 |  | -0.0401 |  |  | -0.113 | -0.0923 | 0.0044 | 0.0163 |  |  | -0.0168 | -0.0864 | -0.0159 |  |  |  |  |  |
